Results as given in PubChem BioAssay AID330 (DTP/NCI, 2004).
Several values for one entry are separate records, joined by “and”; a condition that tells them apart may be missing. Identical values can stand only once. Inconclusive results and toxic doses are left out. How the source made its calls: active means survival T/C of 150% or more; inactive means T/C below 125% in these data.

Test system: P388 leukemia ip, CD2F1 mice, survival T/C
Experiment: NCI In Vivo Anticancer Drug Screen. Data for tumor model P388 Leukemia (intraperitoneal) in CD2F1 (CDF1) mice
Details: endpoint: median survival time, higher = longer survival
In short: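 Mice carrying the transplanted tumor received test compound or vehicle. Survival was recorded in each group, and the value is the treated-group measurement divided by that of the vehicle-treated control group.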

[1] = dose: 50.0 mg/kg/injection, schedule: Q01DX005 (ip), vehicle: saline with Tween-80
[2] = dose: 100.0 mg/kg/injection, schedule: Q01DX005 (ip), vehicle: saline with Tween-80
[3] = dose: 200.0 mg/kg/injection, schedule: Q01DX005 (ip), vehicle: saline with Tween-80
[4] = dose: 25.0 mg/kg/injection, schedule: Q01DX005 (ip), vehicle: Klucel (hydroxypropylcellulose) (HPC)
[5] = dose: 50.0 mg/kg/injection, schedule: Q01DX005 (ip), vehicle: Klucel (hydroxypropylcellulose) (HPC)
[6] = dose: 100.0 mg/kg/injection, schedule: Q01DX005 (ip), vehicle: Klucel (hydroxypropylcellulose) (HPC)
[7] = dose: 200.0 mg/kg/injection, schedule: Q01DX005 (ip), vehicle: Klucel (hydroxypropylcellulose) (HPC)
[8] = dose: 50.0 mg/kg/injection, schedule: Q01DX009 (ip), vehicle: Klucel (hydroxypropylcellulose) (HPC)
[9] = dose: 100.0 mg/kg/injection, schedule: Q01DX009 (ip), vehicle: Klucel (hydroxypropylcellulose) (HPC)
[10] = dose: 200.0 mg/kg/injection, schedule: Q01DX009 (ip), vehicle: Klucel (hydroxypropylcellulose) (HPC)
[11] = dose: 50.0 mg/kg/injection, schedule: Q01DX009 (ip), vehicle: saline
[12] = dose: 100.0 mg/kg/injection, schedule: Q01DX009 (ip), vehicle: saline
[13] = dose: 50.0 mg/kg/injection, schedule: Q01DX009 (ip), vehicle: saline with Tween-80
[14] = dose: 100.0 mg/kg/injection, schedule: Q01DX009 (ip), vehicle: saline with Tween-80
[15] = dose: 100.0 mg/kg/injection, schedule: Q04DX003 (ip), vehicle: saline with Tween-80
[16] = dose: 200.0 mg/kg/injection, schedule: Q04DX003 (ip), vehicle: saline with Tween-80
[17] = dose: 400.0 mg/kg/injection, schedule: Q04DX003 (ip), vehicle: saline with Tween-80
[18] = dose: 6.25 mg/kg/injection, schedule: Q01DX009 (ip), vehicle: saline with Tween-80
[19] = dose: 12.5 mg/kg/injection, schedule: Q01DX009 (ip), vehicle: saline with Tween-80
[20] = dose: 200.0 mg/kg/injection, schedule: Q01DX009 (ip), vehicle: saline

Measured: T/C

O=C(O)CCCC#C/C=C/CCCC/C=C(Br)\C=C/Br
inactive: dose: 62.5 mg/kg/injection, schedule: Q01DX009 (ip), vehicle: olive oil, sesame oil, peanut oil 106 % of control | dose: 125.0 mg/kg/injection, schedule: Q01DX009 (ip), vehicle: olive oil, sesame oil, peanut oil 96 % of control | dose: 250.0 mg/kg/injection, schedule: Q01DX009 (ip), vehicle: olive oil, sesame oil, peanut oil 100 % of control

CC(C)(C)C(=O)CC(=O)C(F)(F)C(F)(F)C(F)(F)F.CC(C)(C)C(=O)CC(=O)C(F)(F)C(F)(F)C(F)(F)F.CC(C)(C)C(=O)CC(=O)C(F)(F)C(F)(F)C(F)(F)F.[Eu]
inactive: dose: 60.0 mg/kg/injection, schedule: Q01DX005 (ip), vehicle: Klucel + Tween-80 99 % of control | dose: 120.0 mg/kg/injection, schedule: Q01DX005 (ip), vehicle: Klucel + Tween-80 98 % of control | dose: 240.0 mg/kg/injection, schedule: Q01DX005 (ip), vehicle: Klucel + Tween-80 98 % of control

O=C1CSC(c2ccccc2O)N1c1nncs1 (stereo unspecified)
inactive: [1] 94 % of control | [2] 93 % of control | [3] 93 % of control

CCCCC(CC)C(=O)OC(C)C(=O)N(CCCC)CCCC (stereo unspecified)
inactive: [4] 105 % of control | [5] 103 % of control | [6] 105 % of control | [7] 95 % of control

Cc1ccccc1[B-]12OCC[N+]1(CNC(=O)C1=C(O)C3(O)C(=O)C4=C(O)c5c(O)cccc5C(C)(O)C4CC3C(N(C)C)C1=O)CCO2 (stereo unspecified)
inactive: [5] 110 % of control | [6] 115 % of control | [7] 108 % of control

CN(C(=S)SSC(=S)N(C)c1ccccc1)c1ccccc1
inactive: dose: 25.0 mg/kg/injection, schedule: Q01DX009 (ip), vehicle: Klucel (hydroxypropylcellulose) (HPC) 91 % of control | [8] 93 % of control | [9] 97 % of control | [10] 101 % of control

COc1cccc(OC)c1OCCN
inactive: [11] 111 % of control | [12] 99 % of control

CCCCN(CCCC)C(=N)c1c(OC)cccc1OC
inactive: dose: 0.78 mg/kg/injection, schedule: Q01DX005 (ip), vehicle: saline 104 % of control | dose: 1.56 mg/kg/injection, schedule: Q01DX005 (ip), vehicle: saline 99 % of control | dose: 3.12 mg/kg/injection, schedule: Q01DX005 (ip), vehicle: saline 96 % of control

O=C(O)C(Cc1ccc([N+](=O)[O-])cc1)NCc1ccco1 (stereo unspecified)
inactive: [13] 119 % of control | [14] 119 % of control

CCCCCCCCC(=O)C(=O)c1ccc(O)cc1O
inactive: [8] 113 % of control | [9] 113 % of control | [10] 113 % of control

O=C(O)C[n+]1ccccc1
inactive: dose: 6.25 mg/kg/injection, schedule: Q01DX009 (ip), vehicle: saline 103 % of control | dose: 12.5 mg/kg/injection, schedule: Q01DX009 (ip), vehicle: saline 101 % of control and 94 % of control | dose: 25.0 mg/kg/injection, schedule: Q01DX009 (ip), vehicle: saline 105 % of control | [11] 101 % of control | [12] 97 % of control

NC(CCl)=NC1CCCCC1
inactive: dose: 10.0 mg/kg/injection, schedule: Q04DX003 (ip), vehicle: saline 109 % of control | dose: 15.0 mg/kg/injection, schedule: Q04DX003 (ip), vehicle: saline 107 % of control | dose: 22.0 mg/kg/injection, schedule: Q04DX003 (ip), vehicle: saline 111 % of control | dose: 33.0 mg/kg/injection, schedule: Q04DX003 (ip), vehicle: saline 116 % of control

COc1ccc2c([O-])c3[n+](cc2c1OC)CCc1cc2c(cc1-3)OCO2
inactive: dose: 50.0 mg/kg/injection, schedule: Q04DX002 (ip), vehicle: saline with Tween-80 103 % of control | dose: 100.0 mg/kg/injection, schedule: Q04DX002 (ip), vehicle: saline with Tween-80 106 % of control | dose: 200.0 mg/kg/injection, schedule: Q04DX002 (ip), vehicle: saline with Tween-80 102 % of control

COc1cc2c(cc1OC)C(c1c(Cl)cccc1Cl)=NCC2
inactive: [5] 96 % of control | [6] 105 % of control | [7] 110 % of control

COc1ccc2oc3cccc(NCCN(C)C)c3c(=O)c2c1
inactive: [4] 105 % of control | [5] 100 % of control | [6] 107 % of control | [7] 107 % of control

Cn1c(=O)n2n(c1=O)C1C3C4C3C3C5(COCC135)C42 (stereo unspecified)
inactive: [8] 97 % of control | [9] 92 % of control | [10] 97 % of control

O=C(/C=C/c1ccc(O)cc1)c1ccccc1
inactive: dose: 50.0 mg/kg/injection, schedule: Q04DX003 (ip), vehicle: saline with Tween-80 105 % of control and 94 % of control | [15] 98 % of control and 105 % of control | [16] 103 % of control and 105 % of control | [17] 105 % of control

CCC(C(=O)Nc1ccccc1-c1ccccc1)c1ccccc1 (stereo unspecified)
inactive: [18] 110 % of control | [19] 101 % of control | dose: 25.0 mg/kg/injection, schedule: Q01DX009 (ip), vehicle: saline with Tween-80 96 % of control | [12] 96 % of control | [20] 87 % of control

C=C1C(NC)CCC23CC24CCC2(C)C(C(C)=O)C(O)CC2(C)C4CCC13 (stereo unspecified)
inactive: [13] 92 % of control | [14] 96 % of control

Cn1c2ccccc2c(=S)c2cc(NC(=O)CCCCC(=O)Nc3ccc4c(c3)c(=S)c3ccccc3n4C)ccc21
inactive: [1] 110 % of control | [2] 98 % of control | [3] 104 % of control

O=C(Nc1ccccc1)NC1CCCCCC1
inactive: [11] 93 % of control | [12] 98 % of control | [20] 87 % of control

O=P(c1ccccc1)(c1ccccc1)c1ccccc1.O=P(c1ccccc1)(c1ccccc1)c1ccccc1.O=P(c1ccccc1)(c1ccccc1)c1ccccc1.O=P(c1ccccc1)(c1ccccc1)c1ccccc1.[O-][Cl+3]([O-])([O-])O.[O]=[U+2]=[O]
inactive: [18] 88 % of control | [19] 90 % of control

Cc1ccc(-c2cc(Cl)c3cc(S(=O)(=O)F)ccc3n2)cc1
inactive: [14] 104 % of control | [15] 100 % of control | dose: 200.0 mg/kg/injection, schedule: Q01DX009 (ip), vehicle: saline with Tween-80 100 % of control | [16] 100 % of control | dose: 400.0 mg/kg/injection, schedule: Q01DX009 (ip), vehicle: saline with Tween-80 104 % of control | [17] 100 % of control

COc1cc2ccc(CC(=O)NCCc3ccc4c(c3)OCO4)cc2cc1OC
inactive: [9] 100 % of control | [10] 100 % of control | dose: 400.0 mg/kg/injection, schedule: Q01DX009 (ip), vehicle: Klucel (hydroxypropylcellulose) (HPC) 90 % of control

O=C(O)c1c[nH]c2cc(S(=O)(=O)O)ccc2c1=O
inactive: [11] 95 % of control | [12] 100 % of control | [20] 92 % of control

c1cncc(-c2c3ccccc3cc3ccc4ccccc4c23)c1
inactive: [1] 104 % of control | [2] 103 % of control | [3] 100 % of control
